Data reported in US5637586A, “Benzimidazolesulfonamide derivatives and pharmaceutical composition” (Kureha Chemical Industry Co., Ltd., priority 1994, dated 1997).

Key:
[1] = system: angiotensin II receptor subtype 2 (AT2); assay: Binding to receptors: inhibition of radioligand (125I-Tyr4-angiotensin II) binding to AT2; conditions: bovine cerebellar cortex, tracer 125I-Tyr4-angiotensin II, displacer angiotensin II (human), 37° C., 1 hour
Experimental: (§1) In this Example, the affinity to the angiotensin II receptor subtype 1 or subtype 2 was evaluated by a binding assay in accordance with the method described in Biochem. Pharmacol., 33, 4057-4062 (1984).
(§2) Specifically, the measurement of the total binding in the presence of each drug was performed as follows:
(§3) A mixture (final volume=0.25 ml) of a drug in a given concentration (the drug was dissolved in dimethylsulfoxide, and diluted to a double volume with a buffer attached to a drug discovery system to prepare a sample for the assay; 0.025 ml), a tracer (0.025 ml), and receptors (0.2 ml) was incubated [in the case of the angiotensin II receptor subtype 1 (AT1), at room temperature for 3 hours, and in the case of the subtype 2 (AT2), at 37° C. for 1 hour]. Then, the reaction mixture was filtered with suction (GF/C filter was used in AT1, and GF/B filter was used in AT2). The filter papers after filtration with suction (the tracer bound to the receptors) were counted by a γ-wellcounter (ARC-500, Aloka). The non-specific bindings were measured by repeating the above method, except that a large excess amount of a displacer was added. The specific binding of the drug in the given concentration was calculated by subtracting the non-specific binding from the total binding, respectively. […]

[2] = system: angiotensin II receptor subtype 1 (AT1); assay: Binding to receptors: inhibition of radioligand (3H-angiotensin II) binding to AT1; conditions: rabbit adrenal glands, tracer 3H-angiotensin II, displacer DuP753, room temperature
Experimental: as §1, §2, §3

CCCCc1nc2ccc(S(=O)(=O)N3CCOCC3)cc2n1Cc1ccc(-c2ccccc2-c2nn[nH]n2)cc1 [Compound No. 1, 4-[[2-n-butyl-1-[2'-[(1H-tetrazol-5-yl)biphenyl-4-yl]methyl]benzimidazol-6-yl]sulfonyl]morpholin]
Binding inhibition % in 1 μM, AT2 [1]: 0%
Binding inhibition % in 1 μM, AT1 [2]: 100%

CCCCc1nc(Cl)c(CO)n1Cc1ccc(-c2ccccc2-c2nnn[nH]2)cc1 [DuP753, 2-butyl-4-chloro-5-(hydroxymethyl)-1-[[2'-(1H-tetrazol-5-yl)biphenyl-4-yl]methyl]imidazole]
Binding inhibition % in 1 μM, AT2 [1]: 0%
Binding inhibition % in 1 μM, AT1 [2]: 95%
